Data set [1] has as its target T1, A1 receptors from rat brain membranes (Rattus norvegicus, UniProt P25099).
T1 construct: Rat cerebral cortical and striatal membranes were prepared; from tissue; host or cells: rat brain (cerebral cortical) membranes
T1 sequence (P25099 1-326): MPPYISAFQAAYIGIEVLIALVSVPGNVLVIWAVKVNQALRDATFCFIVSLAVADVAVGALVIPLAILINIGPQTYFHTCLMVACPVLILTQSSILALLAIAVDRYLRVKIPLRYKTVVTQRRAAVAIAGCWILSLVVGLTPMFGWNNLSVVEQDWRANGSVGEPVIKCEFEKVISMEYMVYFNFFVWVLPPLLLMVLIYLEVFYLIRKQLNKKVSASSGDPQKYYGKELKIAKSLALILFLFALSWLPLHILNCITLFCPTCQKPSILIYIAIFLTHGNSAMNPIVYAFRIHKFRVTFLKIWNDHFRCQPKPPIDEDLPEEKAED

Data set [2] addresses T2, A2 receptors from rat striatal membranes (Rattus norvegicus, UniProt P30543).
T2 construct: Rat cerebral cortical and striatal membranes were prepared; from tissue; host or cells: rat striatal membranes

Data set [3] deals with pentamethylenetetrazole-induced convulsions in mice. The class given is in vivo. Conditions: PMT 75 mg/kg alone.
The target in data set [4] is T2, A2 receptors from rat striatal membranes. Nature of the data set: Radioligand binding at A2 (A2a) receptors, displacement of [3H]CGS 21680 (or [3H]NECA with 50 nM CPA) from rat striatal membranes. Background: Displacement assays read how much labelled ligand stays bound in the presence of the test substance.
Data set [5] concerns cardiovascular parameters in rats. The class given is in vivo, rat.
Description: Rats (each weighing 300-340 g) were lightly anesthetized using 1.5-2% halothane. They were monitored for heart rate with a tail sensor and blood pressure using the tail cuff method. Peripheral blood flow (scalp) was monitored using a Perimed laser Doppler blood flow apparatus, with a narrow diameter probe placed in contact with the shaved skin above the center of the cranium. A small amount of clear gel was applied to maintain uniform transmission of light. Body temperature was measured using a rectal probe. Respiratory rate was also recorded. Measurements were made at regular intervals: every 2 min for the first ten min period, and every five min thereafter, until 30 min, at which time a 30 min interval was used, until 90 min. […] Drugs were dissolved in a vehicle consisting of an 80:20 mixture of Alkamuls EL-620 and saline, pH 7.4. […] When administered alone, the agonist was given at the beginning of the monitoring period. When coadministered with an antagonist, the antagonist was given at the beginning of the monitoring period, and the agonist was given after 10 min.
The target in data set [6] is T1, A1 receptors from rat brain membranes. Nature of the data set: biochemical. Conditions: for Ki: rat brain membranes; for inhibition at 100 µM: read-out: A1 percent displacement. The class given is binding.
The test system of data set [7] is NMDA-evoked seizures in mice. Type of data set: in vivo.
[8] abbreviates: read-out: A1 affinity Ki; values without SEM, taken from the literature; cited from earlier work.
The mark [9] stands for this setting: values without SEM, taken from the literature; read-out: A2 affinity Ki; cited from earlier work.
Setting [10] is: values without SEM, taken from the literature; read-out: A1 affinity Ki; cited from earlier work.
[11] abbreviates: rat striatal membranes, displacement of [3H]CGS 21680 (or [3H]NECA + 50 nM CPA), read-out: A2 affinity Ki.
[12] abbreviates: 4 mg/kg alone, 10-30 min post-injection.
Setting [13] is: displacement of [3H]PIA (or [3H]CHA), read-out: A1 affinity Ki.
Setting [14] is: Table 4, [3H]CGS 21680, rat striatal membranes, read-out: Ki (A2).
Setting [15] is: Table 4, [3H]PIA, read-out: Ki (A1).
Where [16] appears, read: read-out: A2 percent displacement.
Where [17] appears, read: read-out: percent displacement of radioligand at A2.

Read-outs that look alike come from different tables or passages of the source. Where only a bound is given, the exact number is not on record here.

As a reminder, the Ki is the dissociation constant of the complex between target and ligand, obtained from inhibition or displacement.

T2 sequence (P30543 whole entry): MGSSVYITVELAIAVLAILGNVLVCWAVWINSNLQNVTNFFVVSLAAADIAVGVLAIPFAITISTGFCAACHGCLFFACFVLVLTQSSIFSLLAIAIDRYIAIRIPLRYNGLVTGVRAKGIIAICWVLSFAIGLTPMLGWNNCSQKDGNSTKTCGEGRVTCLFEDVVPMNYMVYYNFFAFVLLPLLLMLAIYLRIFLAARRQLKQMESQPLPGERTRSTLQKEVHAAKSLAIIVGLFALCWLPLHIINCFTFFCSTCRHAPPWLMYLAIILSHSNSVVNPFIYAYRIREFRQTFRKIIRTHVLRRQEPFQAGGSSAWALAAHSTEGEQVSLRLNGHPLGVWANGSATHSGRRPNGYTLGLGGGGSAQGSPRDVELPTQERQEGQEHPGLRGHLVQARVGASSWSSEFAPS

For `N=C(N)NC(=O)c1nc(Cl)c(N)nc1N` [Compound 97, amiloride], the Ki in data set [1] (setting [8]) was 11 µM; in data set [2] (read-out: A2 affinity Ki; values without SEM, taken from the literature; cited from earlier work), 17 µM.
In the case of `CC(C)Cn1c(=O)n(C)c(=O)c2[nH]cnc21` [Compound 108, 3-isobutyl-1-methylxanthine], the Ki in data set [2] (setting [9]) is 16 µM.
Turning to `C1CCc2nnnn2CC1` [PMT, pentamethylenetetrazole, reference compound], in data set [3], the “Mortality 0.4-5 h” value stood at 0%, the “Mortality <15 min” value was 100%, the “Mortality >5 h” value is 0% and the “Mortality Overall” value turned out to be 100%. In data set [3], the “Onset of convulsive behavior” value amounted to 74 s.
As for `Nc1[nH]c2ccccc2c2ncnc1-2` [Compound 94, imidazo[4,5-c]quinolin-4-amine], in data set [2] (setting [9]), the Ki is 1.4 µM.
In the case of `Cn1cnc2c1c(=O)[nH]c(=O)n2C` [Compound 106, 3,7-dimethylX], the results for the Ki in data set [1] (setting [10]) and in data set [2] (setting [9]) were 83.4 µM and 187 µM, respectively.
In the case of `OC[C@H]1O[C@@H](n2cnc3c(NC4CCCC4)cc(Cl)nc32)[C@H](O)[C@@H]1O` [Compound 15, 1-deaza-2-chloro-N^6-cyclopentyladenosine], the Ki in data set [2] (setting [9]) is 13.2 µM.
In the case of `Cn1c(=O)[nH]c2ncn(C)c2c1=O` [Compound 104, 1,7-dimethylX, reference compound], the Ki in data set [1] (setting [10]) is 30 µM; in data set [4] (setting [11]), 19.4 µM.
As to `O=S(=O)(O)CCNc1ncnc2c1ncn2[C@@H]1O[C@H](CO)[C@@H](O)[C@H]1O` [Compound 11, N^6-(2-sulfo)ethyladenosine], the A1 percent displacement in data set [1] (at 100 μM, value without SEM, from the literature; cited from earlier work) was 41%.
For `CCNC(=O)[C@H]1O[C@@H](n2cnc3c(NC4CCCCC4)ncnc32)[C@H](O)[C@@H]1O` [Compound 27, N^6 -cyclohexylNECA], the Ki in data set [1] (read-out: A1 affinity Ki; cited from earlier work) was 0.00043 µM; in data set [2] (setting [9]), 0.17 µM.
Consider `CCCn1c(=O)c2[nH]c(-c3ccc(C=CC(=O)O)cc3)nc2n(CCC)c1=O` [BW1433, 1,3-dipropyl-8-(4-carboxyvinylphenyl)xanthine, reference compound], for which the “blood flow and respiratory rates (in words)” value in data set [5] (4 mg/kg alone) is “Blood flow and respiratory rates were increased”. Also, in data set [5] (setting [12]), the “rise in blood pressure” value is recorded as > 40 % of initial values and the “rise in heart rate” value is recorded as > 40 % of initial values. The “body temperature (in words)” value in data set [5] (rat, in vivo, 4 mg/kg) is on record as “no major changes”.
In the case of `CCNC(=O)[C@H]1O[C@@H](n2cnc3c(NCc4ccccc4)ncnc32)[C@H](O)[C@@H]1O` [Compound 28, N^6-benzyladenosine-5'-N-ethyluronamide], the results for the Ki in data set [4] (setting [11]), in data set [6] (setting [13]) and in data set [2] (setting [9]) were 0.0953 ± 0.0246 µM, 0.0873 ± 0.0139 µM and 0.095 µM, respectively.
Consider `CN[C@H](CC(=O)O)C(=O)O` [NMDA, N-methyl-D-aspartate, reference compound], for which, in data set [7] (NMDA 60 mg/kg alone), the “% Mortality at 24 h” value is listed as 60% and the “Ave. Latency to Seizures” value is 244 + 90 sec. Moreover, the “% Convulsing” value in data set [7] (NMDA 60 mg/kg alone (control), within 15 min) worked out at 80%. Besides, the “Impairment (neurological impairment scale 1-6)” value in data set [7] (NMDA 60 mg/kg alone, 1 no change ... 6 clonic/tonic complexes) was determined as 3.5 ± 0.5.
For `Nc1ncnc2c1ccn2[C@@H]1O[C@H](CO)[C@@H](O)[C@H]1O` [Compound 33, 7-deazaadenosine, reference compound], in data set [1] (setting [8]), the inhibitory constant (Ki) was over 0.1 µM. Further, the A2 percent displacement in data set [4] (striatal membranes, 100 µM) came out at 48.3 ± 0.4%.
For the molecule `CCCCn1c(=O)n(Cc2ccccc2)c(=O)c2c1ncn2[C@@H]1O[C@H](CO)[C@@H](O)[C@H]1O` [Compound 120, 1-benzyl-3-butylxanthine-7-β-D-ribofuranoside], the Ki in data set [4] (setting [14]) was found to be 8.67 µM; in data set [4] (setting [11]) it was 3.8 µM; in data set [6] (setting [15]), 2.19 µM. Moreover, the “potency increase at A1 and A2a receptors vs 1,3-di-n-butylxanthine-7-β-D-ribofuranoside” value in data set [6] is 2-4 fold.
Regarding `CNC(=O)[C@H]1O[C@@H](n2cnc3c(NCc4cccc(Br)c4)ncnc32)[C@H](O)[C@@H]1O` [Compound 41, N^6-(3-bromobenzyl)-NMCA], the Ki is 0.064 ± 0.009 µM in data set [4] (setting [11]) and 0.065 ± 0.002 µM in data set [6] (setting [13]).
With `O=c1[nH]c(=O)c2[nH]cnc2[nH]1` [Compound 98, xanthine, reference compound], the Ki in data set [1] (setting [10]) is 298 µM. In data set [4] (setting [16]), the inhibition at 100 µM was 16.2 ± 2.6%.
With `Nc1nc2c(ncn2[C@@H]2O[C@H](CO)[C@@H](O)[C@H]2O)c(=O)[nH]1` [Compound 86, guanosine, reference compound], the values for the Ki in data set [4] (setting [11]) and in data set [6] (setting [13]) were 8.5 µM and 27.8 µM, respectively.
`CC(C)(C)OC(=O)NCCNC(=O)[C@H]1O[C@@H](n2cnc3c(N)ncnc32)[C@H](O)[C@@H]1O` [Compound 26, 5'-N-boc-aminoethylaminocarboxamidoadenosine]: the inhibition at 100 µM in data set [4] (setting [16]) and in data set [6] (at 100 μM) was 0% each time.
Regarding `CNC(=O)[C@H]1O[C@@H](n2cnc3c(NCc4cccc(NC(C)=O)c4)ncnc32)[C@H](O)[C@@H]1O` [Compound 45, N^6-(3-acetamidobenzyl)-NMCA], in data set [4] (setting [16]), the inhibition at 100 µM is 12.5 ± 1.9%. The Ki in data set [6] (setting [13]) was 7.37 µM.
For `CN(Cc1ccccc1)c1ncnc2c1ncn2[C@@H]1O[C@H](CO)[C@@H](O)[C@H]1O` [Compound 30, N^6 -benzyl-N^6 -methyladenosine, reference compound], the Ki in data set [4] (setting [11]) was determined as 40.1 µM; in data set [6] (setting [13]) it was 7.6 µM.
Regarding `Nc1ncnc2c1ncn2[C@]1(CO)O[C@H](CO)[C@@H](O)[C@H]1O` [Compound 80, β-D-psicofuranosyladenine, reference compound], the inhibition at 100 µM stood at 51.5 ± 7.4% in data set [4] (at 100 μM, read-out: A2 percent displacement) and 36.1 ± 4.9% in data set [6].
Consider `CCCCn1c(=O)c2c(ncn2[C@@H]2O[C@H](C(=O)OC)[C@@H](O)[C@H]2O)n(CCCC)c1=O` [Compound 122, methyl 1,3-di-n-butylxanthine-7-β-D-ribofuronate], for which the inhibition at 3 µM in data set [4] (setting [17]) stood at 0%. Moreover, the Ki in data set [6] (setting [15]) came out at 3.72 µM.
`COc1cc(OC)cc(C(CNc2ncnc3c2ncn3[C@@H]2O[C@H](CO)[C@@H](O)[C@H]2O)c2ccccc2C)c1` (some centres unmarked) [Compound 10, N^6-[2-(3,5-dimethoxyphenyl)-2-(2-methylphenyl)ethyl]adenosine]: the Ki in data set [2] (read-out: A2 affinity Ki; cited from earlier work) is 0.0044 µM.
For the molecule `Nc1ncnc2c1nc(Br)n2[C@@H]1O[C@H](CO)[C@@H](O)[C@H]1O` [Compound 31, 8-bromoadenosine, reference compound], the Ki in data set [4] (setting [11]) stood at 22.7 µM. For the same molecule, in data set [6], the inhibition at 100 µM amounted to 41.5 ± 3.2%.
On to `CCCCn1c(=O)c2c(ncn2[C@@H]2O[C@H](CO)[C@@H](O)[C@H]2O)n(Cc2ccccc2)c1=O` [Compound 121, 3-benzyl-1-butylxanthine-7-β-D-ribofuranoside], for which the Ki was 4.51 µM in data set [4] (setting [14]), 4.51 µM in data set [4] (setting [11]) and 1.72 ± 0.03 µM in data set [6] (setting [15]). Moreover, in data set [6] (A1 and A2a receptors), the “potency increase at A1 and A2a receptors vs 1,3-di-n-butylxanthine-7-β-D-ribofuranoside” value is reported as 2-4 fold.
As to `Cn1c(=O)c2c(ncn2[C@@H]2O[C@H](CO)[C@@H](O)[C@H]2O)n(C)c1=O` [Compound 117, theophylline-7-riboside, reference compound], in data set [4] (setting [17]), the inhibition at 100 µM was 2%. Besides, in data set [6] (setting [15]), the Ki was found to be 27 µM.
Consider `CN(C)c1ncnc2c1ncn2[C@@H]1O[C@H](CO)[C@@H](O)[C@H]1O` [Compound 9, N^6 -dimethyladenosine, reference compound], for which the Ki in data set [1] (setting [10]) is 10 µM; in data set [4] (setting [11]) it was 28.9 µM.
`Cn1c(=O)[nH]c2c(ncn2C)c1=O` [Compound 105, 1,9-dimethylX, reference compound]: the inhibition at 100 µM is 6 ± 6.3% in data set [4] (setting [16]) and 29.4 ± 1.6% in data set [6] (at 100 μM).
In the case of `CCNC(=O)[C@H]1O[C@@H](n2cnc3c(N(C)C)ncnc32)[C@H](O)[C@@H]1O` [Compound 29, N^6 -dimethylNECA, reference compound], the Ki in data set [1] (setting [10]) was 9.6 µM; in data set [4] (setting [11]) it was 13.5 µM.

The values above are taken from US5773423A (priority 1994, dated 1998).
